Results from patent US7879846B2, “Serine hydrolase inhibitors” (Kyorin Pharmaceutical Co.., Ltd., priority 2006, dated 2011).

target: T1, Human sputum neutrophil elastase (Homo sapiens, UniProt P08246); assay: Inhibitor IC50 against human neutrophil elastase (fluorogenic MeOSuc-AAPV-AMC substrate); assay type: biochemical; details: 20 min preincubation, read-out: HNE IC50
T1 construct: purchased Elastin Products Co; host or cells: human sputum (natural source)
T1 sequence (P08246 30-247 limits assumed): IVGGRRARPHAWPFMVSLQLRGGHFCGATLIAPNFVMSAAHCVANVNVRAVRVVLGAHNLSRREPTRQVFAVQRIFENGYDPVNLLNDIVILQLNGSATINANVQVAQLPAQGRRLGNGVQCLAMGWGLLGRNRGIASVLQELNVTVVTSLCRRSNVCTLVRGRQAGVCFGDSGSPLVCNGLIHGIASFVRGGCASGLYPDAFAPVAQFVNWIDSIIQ
Protocol: Determination of Inhibitor IC50 Values Against Human Neutrophil Elastase
Human sputum neutrophil elastase (Elastin Products Co.) was diluted into Assay Buffer A (200 mM Tris pH 7.4, 1 mg/ml BSA) to a working concentration of 0.55 U/ml. […] DMSO alone was used as the negative control. MeOSuc-AAPV-AMC (Bachem) substrate was dissolved in DMSO to 20 mM and further diluted to 1 mM in Assay Buffer A immediately before use. Substrate was added to the elastase assay at a final concentration of 1×10^−4 M. The reaction was allowed to proceed for 20 minutes at room temperature and then quenched with acetic acid at a final concentration of 3% (v/v). […] Fluorescence intensity versus inhibitor concentration was plotted and fit to the Hill equation to quantify IC50 values.

Row | SMILES | IC50
1 | COc1cc(C(C)C)c2c(=O)oc(-c3cnn(C)c3N3CCC(N(C)C)C3)nc2c1 (stereo not drawn) [Compound 127] | > 150 nM
2 | COc1cc(C)c2c(=O)oc(-c3cccnc3-n3ccnc3)nc2c1 [Compound 83] | > 150 nM
3 | CCc1cc(OC)cc2nc(-c3cccnc3N3CCC(CCCC(=O)O)CC3)oc(=O)c12 [Compound 225] | 16 to 60 nM
4 | COc1cc(C2CCC2)c2c(=O)oc(-c3cccnc3N3CCC[C@H](C(=O)O)C3)nc2c1 [Compound 174] | > 150 nM
5 | Cc1cccc2nc(-c3cccnc3N3CC[C@H](N(C)C)C3)oc(=O)c12 [Compound 177] | 16 to 60 nM
6 | CCc1cccc2nc(-c3cccnc3-n3cc[n+](Cc4ccc(Cl)cc4)c3)oc(=O)c12 [Compound 94] | 16 to 60 nM
7 | Cc1cccc2nc(-c3cccnc3N3CC[C@@H](N(C)C)C3)oc(=O)c12 [Compound 178] | 16 to 60 nM
8 | Cc1cccc2nc(-c3cccc[n+]3[O-])oc(=O)c12 [Compound 73] | > 150 nM
9 | CCCc1cc(OC)cc2nc(-c3cccnc3N3CCN(CC4CC4)CC3)oc(=O)c12 [Compound 157] | 61 to 150 nM
10 | COCCN(CCOC)c1ncccc1-c1nc2cccc(C)c2c(=O)o1 [Compound 55] | > 150 nM
11 | COc1cccc2nc(-c3cccnc3-n3ccnc3)oc(=O)c12 [Compound 66] | > 150 nM
12 | COc1cc(C(C)C)c2c(=O)oc(-c3cnn(C)c3N(C)CCN(C)C)nc2c1 [Compound 124] | > 150 nM
13 | Cc1cccc2nc(-c3cccnc3Oc3ccc4c(c3)OCO4)oc(=O)c12 [Compound 37] | 16 to 60 nM
14 | CCCc1cc(OC)cc2nc(-c3cccnc3N(C)C3CCN(C)C3)oc(=O)c12 (stereo not drawn) [Compound 146] | > 150 nM
15 | Cc1cccc2nc(-c3cccnc3OCCN(C)C)oc(=O)c12 [Compound 61] | > 150 nM
16 | CCSc1ncccc1-c1nc2cccc(C)c2c(=O)o1 [Compound 40] | > 150 nM
17 | COc1cc(C2CC2)c2c(=O)oc(-c3cccnc3N3CCCN(C)CC3)nc2c1 [Compound 140] | 61 to 150 nM
18 | COc1cc(C(C)C)c2c(=O)oc(-c3cccnc3N(C)CCN(C)C)nc2c1 [Compound 118] | 61 to 150 nM
19 | COCCOCCOCCOCCOCCOCCOCCOc1ncccc1-c1nc2cc(OC)cc(C(C)C)c2c(=O)o1 [Compound 108] | > 150 nM
20 | COc1cc(C2CC2)c2c(=O)oc(-c3cccnc3N3CCN(CCN(C)C)CC3)nc2c1 [Compound 170] | 61 to 150 nM

Row | SMILES | IC50
21 | CCc1cc(OC)cc2nc(-c3cccnc3N3CC4CC3CN4CC)oc(=O)c12 (stereo not drawn) [Compound 254] | 16 to 60 nM
22 | C#CCOC(=O)NCCN1CCN(c2ncccc2-c2nc3cc(OC)cc(CC)c3c(=O)o2)CC1 [Compound 227] | 16 to 60 nM
23 | COc1cc(C(C)C)c2c(=O)oc(-c3cnn(C)c3N3CC[C@H](N(C)C)C3)nc2c1 [Compound 126] | > 150 nM
24 | O=c1oc(-c2cccnc2SCCS(=O)(=O)c2ccccc2)nc2cccc(Cl)c12 [Compound 30] | 16 to 60 nM
25 | COc1cc(C2CCC2)c2c(=O)oc(-c3cccnc3N3CC[C@@H](N(C)C)C3)nc2c1 [Compound 175] | > 150 nM
26 | Cc1ccc(Sc2ncccc2-c2nc3cccc(C)c3c(=O)o2)cc1 [Compound 24] | > 150 nM
27 | COc1cc(C2CC2)c2c(=O)oc(-c3cccnc3N3CC[C@H](N(C)C)C3)nc2c1 [Compound 165] | 61 to 150 nM
28 | CCN(CC)CC1CN(c2ncccc2-c2nc3cccc(C)c3c(=O)o2)CCO1 (stereo not drawn) [Compound 60] | > 150 nM
29 | Cc1cccc2nc(-c3cccnc3N3CCN(CCN(C)C)CC3)oc(=O)c12 [Compound 180] | 16 to 60 nM
30 | COC(=O)[C@H]1CCCN1c1ncccc1-c1nc2cccc(C)c2c(=O)o1 [Compound 33] | 16 to 60 nM
31 | COc1cc(C(C)C)c2c(=O)oc(-c3cnn(C)c3[N+](=O)[O-])nc2c1 [Compound 120] | 16 to 60 nM
32 | CCc1cc(OC)cc2nc(-c3ccnc(N4CCN(C)CC4)c3)oc(=O)c12 [Compound 205] | > 150 nM
33 | CCc1cc(OC)cc2nc(-c3cccnc3N3CCN(c4ccccc4)CC3)oc(=O)c12 [Compound 223] | 61 to 150 nM
34 | Cc1cccc2nc(-c3cccnc3N3CCN(CCN4CCOCC4)CC3)oc(=O)c12 [Compound 179] | 16 to 60 nM
35 | CCc1cc(OC)cc2nc(-c3cccnc3N(C)C3CCN(C)C3)oc(=O)c12 (stereo not drawn) [Compound 138] | 16 to 60 nM
36 | O=c1oc(-c2cccnc2-n2ccnc2)nc2cccc(Br)c12 [Compound 72] | 61 to 150 nM
37 | COc1cc(C2CC2)c2c(=O)oc(-c3cccnc3N(C)CCN(C)C)nc2c1 [Compound 172] | 61 to 150 nM
38 | COc1cccc2nc(-c3cccnc3N3CCN(C)C(C)C3)oc(=O)c12 (stereo not drawn) [Compound 45] | > 150 nM
39 | O=c1oc(-c2ccccn2)nc2cc(Cl)cc(Cl)c12 [Compound 11] | > 150 nM

Next, values leading:

Row | IC50 | SMILES
40 | < 15 nM | CCc1cc(OC)cc2nc(-c3cccnc3N3CC[C@@H](N(C)C)C3)oc(=O)c12 [Compound 131]
41 | < 15 nM | CCc1cccc2nc(-c3cccnc3N3CCCN(C)CC3)oc(=O)c12 [Compound 92]
42 | 16 to 60 nM | CCc1cc(OC)cc2nc(-c3cccnc3N3CCC(C)(C(=O)N4CCN(C)CC4)CC3)oc(=O)c12 [Compound 273]
43 | 16 to 60 nM | CCc1cc(OC)cc2nc(-c3cccnc3N3C[C@@H](CNC4CC4)[C@H](C)C3)oc(=O)c12 [Compound 259]
44 | 16 to 60 nM | CCc1cc(OC)cc2nc(-c3cccnc3N3CCN(CCCC#N)CC3)oc(=O)c12 [Compound 219]
45 | 16 to 60 nM | CCc1cc(OC)cc2nc(-c3cccnc3N3C[C@H](CNC4CC4)[C@@H](C)C3)oc(=O)c12 [Compound 260]
46 | < 15 nM | CCc1cccc2nc(-c3cccnc3N3CC[C@@H](N(C)C)C3)oc(=O)c12 [Compound 100]
47 | < 15 nM | CCc1cc(OC)cc2nc(-c3cccnc3N3CCN(c4nccs4)CC3)oc(=O)c12 [Compound 250]
48 | < 15 nM | CCc1cc(OC)cc2nc(-c3cccnc3N3CCC(CN4CCOCC4)CC3)oc(=O)c12 [Compound 245]
49 | < 15 nM | CCc1cc(OC)cc2nc(-c3cccnc3N3CCC(N4CCCCC4)CC3)oc(=O)c12 [Compound 216]
50 | < 15 nM | COc1ccc(-c2nc3cccc(Cl)c3c(=O)o2)c(OC)n1 [Compound 38]
51 | < 15 nM | CCc1cc(OC)cc2nc(-c3cccnc3N3CCC(c4c[nH]cn4)CC3)oc(=O)c12 [Compound 275]
52 | < 15 nM | CCc1cc(OC)cc2nc(-c3cccnc3N(C)CCN(C)C)oc(=O)c12 [Compound 239]
53 | < 15 nM | CCc1cc(OC)cc2nc(-c3cccnc3N3CC[N+](C)(CCOC)CC3)oc(=O)c12 [Compound 230]
54 | < 15 nM | CCc1cc(OC)cc2nc(-c3cccnc3N3CCN(CC4CCCO4)CC3)oc(=O)c12 (stereo not drawn) [Compound 218]
55 | < 15 nM | CCc1cc(OC)cc2nc(-c3cccnc3N3CCC(C)(C(=O)NCCN(CC)CC)CC3)oc(=O)c12 [Compound 274]
56 | < 15 nM | C#CCCN1CCN(c2ncccc2-c2nc3cc(OC)cc(CC)c3c(=O)o2)CC1 [Compound 228]
57 | < 15 nM | CCc1cc(OC)cc2nc(-c3cccnc3N3CC[C@H](N(CCO)CCO)C3)oc(=O)c12 [Compound 263]
58 | < 15 nM | CCc1cc(OC)cc2nc(-c3cccnc3N3CCC(CN4CCCC4)CC3)oc(=O)c12 [Compound 272]
59 | < 15 nM | CCc1cc(OC)cc2nc(-c3cccnc3N3CC[C@H](N4CCNC(=O)C4)C3)oc(=O)c12 [Compound 261]
60 | < 15 nM | CCc1cc(OC)cc2nc(-c3cccnc3N3CCCN(C)CC3)oc(=O)c12 [Compound 195]
